# Assays:
# A431 cells [1] = experiment: A431 cellular respiration assay (Clark oxygen electrode); assay type: cell-based, human
# Procedure: In preparing to carry out the titration the results of which are shown in FIG. 2, 10 cm dishes of A431 cells were washed twice and incubated in 5 ml of DME containing 0.1% bovine serum albumin for 1 hour in a CO2 incubator. The cells were collected by trypsinization and resuspended at 2-3×10^6 cells per ml in DME containing 0.1% bovine serum albumin. One ml of the cell suspension was transferred to a glass tube that as maintained at 37° C. with circulating water. The cells were allowed to equilibrate at temperature for 5 minutes, and a Clark oxygen electrode was inserted into the vessel. Potentiometric readings were continuously taken from the electrode using a YSI oxygraph that was attached to a recorder. […] Respiration was allowed to continue until an accurate rate could be observed on the recorder. The rates of respiration were converted to microliters of oxygen per hour per 2×10^6 cells.
# Similarly, the yEGF fractions were titered by measuring their immediate effect on the consumption of oxygen by A431 cells.
# The Experimental Over Control (EXP/CON) is the rate of respiration observed with yEGF(Fraction I) divided by the basal respiration rate for that sample.
# A431 cells [2] = experiment: Relative stability at 55° C. measured by stimulation of A431 cellular respiration; assay type: cell-based, human; conditions: 100 ng of mEGF
# Procedure: Referring to FIG. 4, a graph is shown summarizing the results obtained for yEGF(Fraction I) and mEGF.
# In preparation for the titration the results of which are shown in FIG. 4, twenty microliter samples of either 100 ng of mEGF or 500 ug of yEGF(Fraction I) were incubated for various times at 55° C. The samples were removed and assayed for their ability to stimulate A431 cell respiration. The procedures for measuring respiration were the same as those which are summarized in relationship to the work leading to FIG. 2.
# human EGF receptor = human EGF receptor (Homo sapiens, UniProt P00533); experiment: Binding to EGF receptor of A431 cells (125I-mEGF competition); conditions: read-out: binding constant (KD), same experiment
# anti-mEGF antibody = experiment: Anti-murine EGF Elisa titration; assay type: binding, goat; conditions: Elisa absorbance; significant at <0.1; standard error 0.019
# Procedure: One ml of a 100 mg/ml sample of a yeast extract yEGF(Fraction I) was diluted to 10% with trichloroacetic acid (Fisher Scientific no. A322-100) and allowed to stand for 30 minutes on ice. Precipitated material was collected on a centrifuge at 10,000×g for 10 minutes, and washed twice with 95% ethanol. The insoluble material was dissolved in 1 ml of water and dispersed in a 96 well plate by serial dilutions. Unbound antigen was removed after 3 hours at 37° C. and the plate was incubated with monospecific anti-mEGF antibody overnight at 4° C. Excess antibody was removed by washing the plates and a second antibody conjugated to alkaline phosphatase was added to each well. After 3 hours at 37° C., the excess second antibody was removed and the amount of alkaline phosphatase per well was determined. The Elisa test was dependent on the amount of y-EGF present. In preparation of the materials for the titration shown in the graph of FIG. 6, one hundred microliters of PBS was added to each well of a 96 well microtiter plate. Twenty five microliters of 10 mg/ml yEGF was added to the second well of each row. After mixing, 25 microliters was transferred to the third well in the row. The process was repeated until all the wells had dilutions of yEGF. The antigen was allowed to bind at 37° C. for 3 hours and the plate was washed 3 times with PBS containing 0.05% Tween-20(TPBS). […]
substance,measurement,setting,value
mEGF: pure murine EGF (Collaborative Research no 40001),% Stimulation of A431 respiration,A431 cells [1]; 6.5 ug/ml a-mEGF,1.5%
same,% Stimulation of A431 respiration,A431 cells [1]; 10 ug/ml murine IGG,91.8%
same,% Stimulation of A431 respiration,A431 cells [1]; 0.1mM DTT,44.8%
same,effect of Dithiotrietol (DTT) on activity,A431 cells [1]; DTT,enhanced
same,slope of regression Z=1.512 ug/ml EGF+1.03,"A431 cells [1]; Z = respiration ratio to control, concentration in ug/ml, intercept 1.03, 98% confidence",1.512
same,activity after boiling,A431 cells [1]; boiled,denatured
same,% Stimulation of A431 respiration,"A431 cells [1]; no pretreatment, 0.5 ug/ml mEGF or 1.0 mg/ml yEGF (Fraction I)",17.8%
same,% Stimulation of A431 respiration,A431 cells [1]; pretreatment 30 min 2 ug/ml ProK,1.0%
same,% Stimulation of A431 respiration,A431 cells [1]; pretreatment 30 min 2 ug/ml RNase A,17.6%
same,% Stimulation of A431 respiration,A431 cells [1]; pretreatment 30 min 2ug/ml trypsin,1%
same,% Stimulation of A431 respiration,A431 cells [1]; pretreatment 30 min 10 ug/ml DNasel,18.2%
same,% Stimulation of A431 respiration,A431 cells [1]; pretreatment Boiling,2.1%
same,time to loss of ability to stimulate respiration,A431 cells [2],≤ 10 min
same,Kd,human EGF receptor,2.42 nM
same,regression coefficient: one ug equals 0.0518(ABS)--0.0223,anti-mEGF antibody,0.0518

# — patent US5219998A, “Yeast-derived epidermal growth factor” (priority 1991, dated 1993)
